# Results from patent US10426728B2, “Synergistic liposomal formulation for the treatment of cancer” (priority 2013, dated 2019).
# Structures can show the parent of a compound that is named as a salt.
# Tests used:
# B16F10 cells [1] = assay type: cell-based, murine; conditions: 2 h
# Experimental: Murine melanoma cell line B16F10, colorectal adenocarcinoma SW480 cell line, human colon carcinoma HCT116 cell line, rat brain astrocytes and rat C6 glioma cell lines were maintained in Dulbecco Modified Eagle Medium (DMEM) supplemented with 10% fetal bovine serum, sodium pyruvate, 2 mM L-glutamine, penicillin, and streptomycin. […] The cells were incubated at 37° C. in a humidified atmosphere of 5% CO2 in air (10).
# Inhibition of 3-(4, 5-dimethylthiozol-2-yl)-2, 5-diphenyltetrazolium bromide (MTT) reduction to insoluble formazan by mitochondrial dehydrogenase was used as a viability parameter for the cells and compared with untreated control. After treatment with drug for 2 or 4 h the cells were washed with 20 mM PBS and incubated with 2 mg/ml MTT solution for 4 h at 37° C.
# U937 cells = assay type: cell-based, human; conditions: 7 μg/ml free CPT, 2 h
# Experimental: (§1) Murine melanoma cell line B16F10, colorectal adenocarcinoma SW480 cell line, human colon carcinoma HCT116 cell line, rat brain astrocytes and rat C6 glioma cell lines were maintained in Dulbecco Modified Eagle Medium (DMEM) supplemented with 10% fetal bovine serum, sodium pyruvate, 2 mM L-glutamine, penicillin, and streptomycin. Murine macrophage cell line RAW 264.7, MOLT-4 cell line (derived from human acute lymphoblastic leukemia), human leukemia cell lines K-562 and human lymphoma cell line U-937 were maintained in RPMI 1640 medium supplemented with 10% fetal bovine serum, sodium pyruvate, 2 mM L-glutamine, penicillin, and streptomycin. The cells were incubated at 37° C. in a humidified atmosphere of 5% CO2 in air (10). The Ehrlichs ascites carcinoma cells (EAC) were maintained in vivo in Swiss albino mice, by intraperitoneal (i.p.) transplantation of 2×10^6 cells/mouse every 15 days. Cells were obtained from the peritoneal fluid after 15 days, washed in 0.2M PBS and resuspended in RPMI medium supplemented with 10% FBS.
# (§2) Inhibition of 3-(4, 5-dimethylthiozol-2-yl)-2, 5-diphenyltetrazolium bromide (MTT) reduction to insoluble formazan by mitochondrial dehydrogenase was used as a viability parameter for the cells and compared with untreated control. […] The reduced formazan was solubilised in DMSO and plates were analyzed by determining the A550 on Thermo [sequence]
# [2] = system: human PBMC of healthy donors; assay type: cell-based; conditions: 7 μg/ml free CPT, 2 h
# Experimental: For isolation of human peripheral blood mononuclear cells from healthy donors (PBMC) heparinized human peripheral blood was obtained from healthy donors and the mononuclear cells (PBMC) were isolated by the density sedimentation on Histopaque-1077 (400×g, 30 min at RT) and washed and resuspended in RPMI 1640 supplemented with 10% FCS, 2 mM Lglutamine, penicillin (100 U/ml), and streptomycin (100 mg/ml) (30). […] Inhibition of 3-(4, 5-dimethylthiozol-2-yl)-2, 5-diphenyltetrazolium bromide (MTT) reduction to insoluble formazan by mitochondrial dehydrogenase was used as a viability parameter for the cells and compared with untreated control. After treatment with drug for 2 or 4 h the cells were washed with 20 mM PBS and incubated with 2 mg/ml MTT solution for 4 h at 37° C. The reduced formazan was solubilised in DMSO and plates were analyzed by determining the A550 on Thermo [sequence]
# [3] = system: Ehrlichs ascites carcinoma cells (EAC); assay type: cell-based, mouse; conditions: 7 μg/ml free CPT, 2 h
# Experimental: as §1, §2
# SW480 cells = assay: MTT viability assay; assay type: cell-based, human; conditions: 7 μg/ml free CPT, 2 h
# Experimental: as §1, §2
# B16F10 cells [4] = assay: JC-1 mitochondrial membrane potential flow cytometry; assay type: cell-based, murine; conditions: 7 μg/ml of free CPT, 2 h
# Experimental: Supernatant was carefully removed. 0.5 ml of freshly prepared 5,5′,6,6′-tetrachloro-[…] Iodide (JC-1) working solution containing 1:100 JC-1 stain was added to each pellet. The pellets were resuspended. Cells were incubated in JC-1 working solution for 10-15 min at 37° C. in a CO2 incubator. Cells were washed twice following incubation. Cells were then analyzed by flow cytometry. (BD™ MitoScreen Flow Cytometry Mitochondrial Membrane Potential Detection Kit) (33).
# rat C6 glioma cells = conditions: 7 μg/ml free CPT, 2 h
# Experimental: as §1, §2
# [5] = system: B16F10, K562, U937, rat C6 glioma, EAC, MOLT4 and SW480 cell lines; assay: In vitro EC50 of free anticancer drugs by MTT; assay type: cell-based; conditions: free drug, 2 h treatment
# Experimental: The cells were treated with PC:SA liposome (20-350 μg/ml with respect to PC) or free DOX (500-1000 μg/ml) and free CAMPTOSAR (irinotecan hydrochloride, which is a semisynthetic derivative of camptothecin) (500-10,000 μg/ml). After 2 h of treatment effects on cell viability were determined by MTT assay. EC50 values were determined by nonlinear regression analysis of concentration-response data.
structure (smiles),measurement,setting,value
"CC[C@@]1(O)C(=O)OCc2c1cc1n(c2=O)Cc2cc3ccccc3nc2-1 [CPT, camptothecin]",viability,B16F10 cells [1]; 7 μg/ml free CPT,38%
same,cells survived,B16F10 cells [1]; free CPT 3.9 μg/ml (REV equivalent) and 6.1 μg/ml (DRV equivalent),about 38%
same,killing effect,U937 cells,no killing effect
same,killing effect,[2],no killing effect
same,viability,[3],56%
same,killing effect,SW480 cells,no killing effect
same,green fluorescing monomers (JC-1),B16F10 cells [4],7%
same,viability,rat C6 glioma cells,71%
CCc1c2c(nc3ccc(OC(=O)N4CCC(N5CCCCC5)CC4)cc13)-c1cc3c(c(=O)n1C2)COC(=O)[C@]3(O)CC [irinotecan hydrochloride],EC50,[5],800 to 5000 µg/mL
